We go through 1 compound from patent publication USRE38825E1, “Glyphosate tolerant plants” (Monsanto Technology LLC, priority 1990, dated 2005).

The target of this assay is glyphosate oxidoreductase from LBAA, wild type (w1w2w3: SER84, LYS153, HIS334), SEQ ID NO:5 (Ochrobactrum sp. G-1, UniProt D2KI28, S2A). The assay is described as follows: Kinetic analysis of glyphosate oxidoreductase, wild type (crude E. coli lysate, glyoxylate-DNPH assay). It counts as biochemical, bacterial isolate LBAA (Pseudomonas strain LBAA). From the text: An alternate method for the assay of glyphosate oxidoreductase involves reaction of the sample with 2,4-dinitrophenylhydrazine and determination of the amount of the glyoxylate-2,4-dinitrophenylhydrazone by HPLC analysis as described in detail in a later section.
Prior examples of engineered herbicide resistance by enzymatic inactivation of the herbicide have utilized enzymes with an ability to bind and metabilize the herbicides much more efficiently than glyphosate oxidoreductase metabolizes glyphosate.
The mutagenesis procedure used was that of Mn++-poisoned PCR and the template was a linearized glyphosate oxidoreductase gene plasmid containing the synthetic glyphosate oxidoreductase gene (SEQ ID NO:8). The oligonucleotide primers used were homologous to regions in the vector and flanking the glyphosate oxidoreductase gene. The PCR conditions employed were as follows: 1 minute at 94° C., 2 minutes at 55° C., and 3 minutes at 72° C. and with 35 cycles. A 5:1 ratio of dCTP+dGTP+TTP to dATP was used. The reactions contained MnCl2 at 125, 250, 375, or 500 μM. After the reaction, the amplified product was recloned into a vector containing a weak E. coli promoter. This vector was a pBR327 derivative containing the araBAD promoter and suitable cloning sites. One hundred colonies from this cloning step were then screened in E. coli GB993 for improved glyphosate tolerance and utilization phenotypes in media composed of MOPS minimal medium with glyphosate and Pi or with glyphosate alone, respectively. Growth rates were determined by measuring A550 over a 96 hour period. […] The glyphosate oxidoreductase gene was recloned into the expression vector portion and this phenotype verified. All kinetic analysis was performed on crude E. coli lysates. Putative glyphosate oxidoreductase variant proteins were overexpressed after subcloning the NcoI/HindIII variant glyphosate oxidoreductase gene into PrecA-gene10L expression vector. For overexpression in PrecA-gene10L constructs, GB993 cells containing the vector were induced at a Klett=110-120 in M9 minimal medium with 50 μg/ml nalidixic acid and allowed to grow for 2.5 hours at 37° C. with vigorous shaking. Cells were harvested by centrifugation at 4000 g, 5 minutes at 4° C., and resuspend in 100 mM Tris-HCl, pH 7.1, 1 mM EDTA, 35 mM KCl, 20% glycerol, and 1 mM benzamidine at 3 ml/g cell pellet. Lysates were prepared by breaking the cells in a French press, twice, at 1000 psi. […] Protein concentrations were determined using the Bio-Rad protein dye-binding assay. […] Ten minutes was determined to be the optimal time for the enzyme assay using 10 μg lysate. […] Enzyme activity was determined from the amount of glyoxylate-DNPH adduct formed by measuring A520 against a standard of glyoxylate. […]

In the case of `O=C(O)CNCP(=O)(O)O` [glyphosate, N-phosphonomethyl-glycine], under “domain switch experiment, wt (w1w2w3), substrate glyphosate”, the VmKm is on record as 0.022. In addition, for the setting “read-out: K for glyphosate, general statement on the glyphosate oxidoreductase enzyme”, the Km is 20 to 30 mM. The “VmKm (Glyp)” value (wild type) is on record as “.03”. Also, the “app Vm (Glyp)” value (wild type, pH 7.4, 30° C., enzyme amount by immunoblot) is recorded as 0.8 U/mg.
